Source: patent publication US20230382924A1, “MODULATORS OF CYSTIC FIBROSIS TRANSMEMBRANE CONDUCTANCE REGULATOR” (VERTEX PHARMACEUTICALS INCORPORATED, priority 2020, published 2023)
Read-outs that look alike come from different tables or passages of the source.

Biological target: CFTR (Homo sapiens, UniProt P13569)
Assay: Membrane Potential Dye, Enteroid Assay A
Type: cell-based
Conditions: for EC50: read-out: Ent. A EC50
Method: Base medium (ADF+++) consisted of Advanced DMEM/Ham's F12, 2 mM Glutamax, 10 mM HEPES, […] penicillin/streptomycin.
Bath 1 Buffer consisted of 1 mM MgCl2, 160 mM NaCl, 4.5 mM KCl, 10 mM HEPES, 10 mM Glucose, 2 mM CaCl2).
Chloride Free Buffer consisted of 1 mM Magnesium Gluconate, 2 mM Calcium Gluconate, 4.5 mM Potassium Gluconate, 160 mM Sodium Gluconate, 10 mM HEPES, 10 mM Glucose.
Bath 1 Dye Solution consisted of Bath 1 Buffer, 0.04% Pluronic F127, 20 μM Methyl Oxonol, 30 μM CaCCinh-A01, 30 μM Chicago Sky Blue.
Chloride Free Dye Solution consisted of Chloride Free Buffer, 0.04% Pluronic F127, 20 μM Methyl Oxonol, 30 μM CaCCinh-A01, 30 μM Chicago Sky Blue.
3. Enteroid Cell Harvesting and Seeding
Cells were recovered in cell recovery solution, collected by centrifugation at 650 rpm for 5 min at 4° C., resuspended in TryPLE and incubated for 5 min at 37° C. Cells were then collected by centrifugation at 650 rpm for 5 min at 4° C. and resuspended in IEMM containing 10 μM ROCK inhibitor (RI).
4. Membrane Potential Dye, Enteroid Assay A
Briefly, cells were washed 5 times in Bath 1 Buffer. Bath 1 Dye Solution was added, and the cells were incubated for 25 min at room temperature. Following dye incubation, cells were washed 3 times in Chloride Free Dye Solution. Chloride transport was initiated by addition of Chloride Free Dye Stimulation Solution and the fluorescence signal was read for 15 min. […] Chloride transport was then expressed as a percentage of the chloride transport following treatment with 3 μM N-[(6-amino-2-pyridyl)sulfonyl]-6-(3-fluoro-5-isobutoxy-phenyl)-2-[(4S)-2,2,4-trimethylpyrrolidin-1-yl]pyridine-3-carboxamide, 3 μM (R)-1-(2,2-difluorobenzo[d][1,3]dioxol-5-yl)-N-(1-(2,3-dihydroxypropyl)-6-fluoro-2-(1-hydroxy-2-methylpropan-2-yl)-1H-indol-5-yl)cyclopropanecarboxamide and 300 nM acute N-[2,4-bis(1,1-dimethylethyl)-5-hydroxyphenyl]-1,4-dihydro-4-oxoquinoline-3-carboxamide triple combination control (% Activity).

Chain of CFTR (P13569 with tags, fused parts or gaps DEL508-508): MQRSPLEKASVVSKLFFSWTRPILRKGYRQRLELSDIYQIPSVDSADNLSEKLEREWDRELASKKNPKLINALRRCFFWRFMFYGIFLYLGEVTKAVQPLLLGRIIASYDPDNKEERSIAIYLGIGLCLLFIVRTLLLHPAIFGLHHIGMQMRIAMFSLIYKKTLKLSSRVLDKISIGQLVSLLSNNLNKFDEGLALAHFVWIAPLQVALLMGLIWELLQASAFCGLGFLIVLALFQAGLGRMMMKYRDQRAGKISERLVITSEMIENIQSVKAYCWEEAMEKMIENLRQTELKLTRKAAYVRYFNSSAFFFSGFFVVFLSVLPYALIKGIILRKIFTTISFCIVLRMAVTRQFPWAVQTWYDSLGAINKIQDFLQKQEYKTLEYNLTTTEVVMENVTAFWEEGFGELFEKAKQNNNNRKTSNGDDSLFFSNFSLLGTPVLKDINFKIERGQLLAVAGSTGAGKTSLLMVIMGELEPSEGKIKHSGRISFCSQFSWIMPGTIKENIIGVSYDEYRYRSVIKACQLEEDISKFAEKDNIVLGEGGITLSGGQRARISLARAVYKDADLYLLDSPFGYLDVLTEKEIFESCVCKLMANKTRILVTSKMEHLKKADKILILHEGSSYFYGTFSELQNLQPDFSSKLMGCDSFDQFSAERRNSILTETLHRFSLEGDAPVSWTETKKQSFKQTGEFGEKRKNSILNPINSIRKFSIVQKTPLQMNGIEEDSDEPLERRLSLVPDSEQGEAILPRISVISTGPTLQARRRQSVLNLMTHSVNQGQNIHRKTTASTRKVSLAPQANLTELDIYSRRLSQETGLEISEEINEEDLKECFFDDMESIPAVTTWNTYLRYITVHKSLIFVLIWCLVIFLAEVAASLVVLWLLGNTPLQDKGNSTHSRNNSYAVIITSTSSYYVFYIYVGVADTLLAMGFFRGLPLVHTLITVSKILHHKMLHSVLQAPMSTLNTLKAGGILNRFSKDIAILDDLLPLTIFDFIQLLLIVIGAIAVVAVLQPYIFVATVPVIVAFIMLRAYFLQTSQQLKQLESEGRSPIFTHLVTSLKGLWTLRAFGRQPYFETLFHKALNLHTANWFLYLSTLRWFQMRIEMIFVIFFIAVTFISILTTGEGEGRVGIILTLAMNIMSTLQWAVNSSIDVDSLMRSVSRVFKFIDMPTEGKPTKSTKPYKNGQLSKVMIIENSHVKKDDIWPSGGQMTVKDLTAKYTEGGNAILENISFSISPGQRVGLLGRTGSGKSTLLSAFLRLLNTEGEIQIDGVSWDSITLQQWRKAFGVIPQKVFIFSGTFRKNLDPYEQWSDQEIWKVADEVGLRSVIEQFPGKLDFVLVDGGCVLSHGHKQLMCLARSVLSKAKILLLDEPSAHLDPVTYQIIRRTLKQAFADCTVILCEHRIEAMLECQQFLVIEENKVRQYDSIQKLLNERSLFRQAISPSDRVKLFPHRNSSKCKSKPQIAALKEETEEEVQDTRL

Structure (SMILES)	Ent. A Max Activity (Table 8)	Ent. A Max Activity (Table 9)	EC50 (Table 9) [nM]	other results
Cc1cccc(C)c1-c1cc2nc(n1)NS(=O)(=O)c1cccc(c1)C(=O)NCC(Cc1ccc(C(C)(C)C)cc1)O2 (centres unmarked) [Compound 241]	+++ (+++ is >60%)	–	–	EC50 (Table 8): < 1000 nM
Cc1cccc(C)c1-c1cc2nc(n1)NS(=O)(=O)c1cccc(c1)C(=O)NC[C@@H](c1ccc(CCC3(C(F)(F)F)CC3)cc1)O2 [Compound 145]	–	++ (++ is 30-60%)	< 1000	–
Cc1cccc(C)c1-c1cc2nc(n1)NS(=O)(=O)c1cccc(c1)C(=O)NCC(c1ccc(CC(C)(C)C)cc1)O2 (centres unmarked) [Compound 264]	–	+ (+ is <30%)	< 1000	–
Cc1cccc(C)c1-c1cc2nc(n1)NS(=O)(=O)c1cccc(c1)C(=O)N[C@H](CC1CCOCC1)CO2 (stereo in doubt) [Compound 191]	–	–	–	Ent. A Max Activity (Enteroid Assay A): +++ (+++ is >600%); EC50 (Enteroid Assay A): 3000 to 30000 nM
Cc1cccc(C)c1-c1cc2nc(n1)NS(=O)(=O)c1cccc(c1)C(=O)NCc1cccc(c1)O2 [Compound 197]	–	–	–	Ent. A Max Activity (Enteroid Assay A): ++ (++ is 30-60%); EC50 (Enteroid Assay A): 3000 to 30000 nM
CC(C)C[C@@H]1COc2cc(-c3ccccc3)nc(n2)NS(=O)(=O)c2cccc(c2)C(=O)N1 [Compound 340]	–	–	–	Ent. A Max Activity (Enteroid Assay A): ++ (++ is 30-60%); EC50 (Enteroid Assay A): 3000 to 30000 nM
Cc1cccc(C)c1-c1cc2nc(n1)NS(=O)(=O)c1cccc(c1)C(=O)NCC1(CCN(C(=O)C3(c4ccc5c(c4)CCC5)CC3)CC1)CO2 [Compound 464]	–	–	–	Ent. A Max Activity (Enteroid Assay A): +++ (+++ is >600%); EC50 (Enteroid Assay A): 1000 to 3000 nM
Cc1cccc(C)c1-c1cc2nc(n1)NS(=O)(=O)c1cccc(c1)C(=O)N[C@H](CC(C)C)CCO2 [Compound 225]	–	+++ (+++ is >60%)	< 1000	–
Cc1cccc(C)c1-c1cc2nc(n1)NS(=O)(=O)c1cccc(c1)C(=O)NCC(c1ccc(C(C)(C)C#N)cc1)O2 (centres unmarked) [Compound 152]	+ (+ is <30%)	–	–	–
Cc1cccc(C)c1-c1cc2nc(n1)NS(=O)(=O)c1cccc(c1)C(=O)NC(C(=O)NCc1ccccc1)CO2 (centres unmarked) [Compound 236]	+ (+ is <30%)	–	–	–
Cc1cccc(C)c1-c1cc2nc(n1)NS(=O)(=O)c1cccc(c1)C(=O)NCC(C1CCCCC1)O2 (centres unmarked) [Compound 281]	+++ (+++ is >60%)	–	–	EC50 (Table 8): < 1000 nM
COc1cc(C)c(CN2CCC3(CC2)CNC(=O)c2cccc(c2)S(=O)(=O)Nc2nc(cc(-c4c(C)cccc4C)n2)OC3)cc1C [Compound 438]	–	–	–	Ent. A Max Activity (Enteroid Assay A): ++ (++ is 30-60%); EC50 (Enteroid Assay A): 1000 to 3000 nM
Cc1cccc(C)c1-c1cc2nc(n1)NS(=O)(=O)c1cccc(c1)C(=O)NCC(c1cccc(C(C)(C)C)c1)O2 (centres unmarked) [Compound 247]	+++ (+++ is >60%)	–	–	EC50 (Table 8): < 1000 nM
Cc1cccc(C)c1-c1cc2nc(n1)NS(=O)(=O)c1cccc(c1)C(=O)N[C@H](c1ccccc1)CO2 [Compound 352]	–	–	–	Ent. A Max Activity (Enteroid Assay A): +++ (+++ is >600%); EC50 (Enteroid Assay A): < 1000 nM
Cc1cccc(C)c1-c1cc2nc(n1)NS(=O)(=O)c1cccc(c1)C(=O)N[C@@H]1CCN(CCC(C)(C)C)C[C@H]1O2 (single isomer, unassigned) [Compound 89, 5-(3,3-Dimethylbutyl)-20-(2,6-dimethylphenyl)-2-oxa-16λ^6-thia-5,9,17,19,22-pentaazatetracyclo[16.3.1.111,15.03,8]tricosa-1(21),11(23),12,14,18(22),19-hexaene-10,16,16-trione]	–	+ (+ is <30%)	–	–
Cc1cccc(C)c1-c1cc2nc(n1)NS(=O)(=O)c1cc(cc(C3CC3)c1)C(=O)N[C@H](CC(C)C)CO2 [Compound 136]	+ (+ is <30%)	–	–	–
Cc1cccc(C)c1-c1cc2nc(n1)NS(=O)(=O)c1cccc(c1)C(=O)N[C@H](CC1CCCCC1)[C@@H](c1ccc(C(C)(C)C)cc1)O2 [Compound 154]	+++ (+++ is >60%)	–	–	EC50 (Table 8): < 1000 nM
Cc1cccc(C)c1-c1cc2nc(n1)NS(=O)(=O)c1cccc(c1)C(=O)NCC(c1ccc(C(C)C)cc1)O2 (centres unmarked) [Compound 275]	–	–	–	EC50 (Table 8): < 1000 nM
Cc1cccc(C)c1-c1cc2nc(n1)NS(=O)(=O)c1cccc(c1)C(=O)NCCCC(c1ccc(C(C)(C)C)cc1)O2 (centres unmarked) [Compound 54, 10-(4-tert-butylphenyl)-6-(2,6-dimethylphenyl)-2,2-dioxo-9-oxa-2λ^6-thia-3,5,14,21-tetrazatricyclo[14.3.1.14,8]henicosa-1(20),4(21),5,7,16,18-hexaen-15-one]	–	+++ (+++ is >60%)	< 1000	–
COCCOc1ccc(C2CNC(=O)c3cccc(c3)S(=O)(=O)Nc3nc(cc(-c4c(C)cccc4C)n3)O2)cc1 (centres unmarked) [Compound 120]	+ (+ is <30%)	–	–	–

Structure (SMILES)	Ent. A Max Activity (Table 8)	Ent. A Max Activity (Table 9)	EC50 (Table 9) [nM]	other results
CC(C)C[C@@H]1COc2cc(-c3ccccc3OCc3ccccc3)nc(n2)NS(=O)(=O)c2cccc(c2)C(=O)N1 [Compound 393]	–	+++ (+++ is >60%)	< 1000	–
Cc1cccc(C)c1-c1cc2nc(n1)NS(=O)(=O)c1cccc(c1)C(=O)N[C@@H](CC(F)(F)F)CO2 (single isomer, unassigned) [Compound 93, 6-(2,6-dimethylphenyl)-11-(2,2,2-trifluoroethyl)-9-oxa-2λ^6-thia-3,5,12,19-tetraazatricyclo[12.3.1.14,8]nonadeca-1(17),4(19),5,7,14(18),15-hexaene-2,2,13-trione]	–	++ (++ is 30-60%)	3000 to 30000	–
Cc1cccc(C)c1-c1cc2nc(n1)NS(=O)(=O)c1cccc(c1)C(=O)N[C@@H](c1ccccc1)CCO2 [Compound 290]	–	–	–	EC50 (Table 8): 1000 to 3000 nM
Cc1cccc(C)c1-c1cc2nc(n1)NS(=O)(=O)c1cccc(c1)C(=O)N[C@@H]1CN(Cc3ccccc3)CC[C@H]1O2 [Compound 61, (3R,8R)-6-Benzyl-20-(2,6-dimethylphenyl)-2-oxa-16λ^6-thia-6,9,17,19,22-pentaazatetracyclo[16.3.1.111,15.03,8]tricosa-1(21),11,13,15(23),18(22),19-hexaene-10,16,16-trione]	–	+++ (+++ is >60%)	< 1000	–
Cc1cccc(C)c1-c1cc2nc(n1)NS(=O)(=O)[C@H]1CC[C@H]1C(=O)N[C@H](CC(C)C)CO2 (single isomer, unassigned) [Compound 72]	–	+ (+ is <30%)	–	–
Cc1cccc(C)c1-c1cc2nc(n1)NS(=O)(=O)c1cccc(c1)C(=O)NCC1(CCN(CCC(C)(C)C)CC1)CO2 [Compound 443]	–	–	–	Ent. A Max Activity (Enteroid Assay A): ++ (++ is 30-60%)
CCC(CC)(CC)c1ccc([C@@H]2CNC(=O)c3cccc(c3)S(=O)(=O)Nc3nc(cc(-c4c(C)cccc4C)n3)O2)cc1 [Compound 259]	–	+ (+ is <30%)	< 1000	–
COc1ccccc1-c1cc2nc(n1)NS(=O)(=O)c1cccc(c1)C(=O)N[C@H](CC(C)C)CO2 [Compound 330]	–	–	–	Ent. A Max Activity (Enteroid Assay A): ++ (++ is 30-60%)
Cc1cccc(C)c1-c1cc2nc(n1)NS(=O)(=O)c1cccc(c1)C(=O)NCC(C1CCC(C)(C)CC1)O2 (centres unmarked) [Compound 283]	–	+++ (+++ is >60%)	< 1000	–
Cc1cccc(C)c1-c1cc2nc(n1)NS(=O)(=O)c1cccc(c1)C(=O)NCC(c1ccc(C(C)(C)O)cc1)O2 (centres unmarked) [Compound 245]	–	–	–	EC50 (Table 8): 3000 to 30000 nM
Cc1cccc(C)c1-c1cc2nc(n1)NS(=O)(=O)c1cc(n(C)n1)C(=O)N[C@@H](CC1CCCCC1)CO2 [Compound 359]	+ (+ is <30%)	–	–	–
CC[C@H]1NC(=O)c2cccc(c2)S(=O)(=O)Nc2nc(cc(-c3c(C)cccc3C)n2)O[C@H]1c1ccc(C(C)(C)C)cc1 [Compound 132]	–	+++ (+++ is >60%)	< 1000	–
CC(C)COc1cccc(-c2cc3nc(n2)NS(=O)(=O)c2cccc(c2)C(=O)N[C@H](CC(C)C)CO3)c1 [Compound 331]	–	–	–	EC50 (Enteroid Assay A): 1000 to 3000 nM
CC(C)C[C@@H]1COc2cc(-c3ccccc3Oc3ccccc3)nc(n2)NS(=O)(=O)c2cccc(c2)C(=O)N1 [Compound 392]	–	++ (++ is 30-60%)	< 1000	–
Cc1cccc(C)c1-c1cc2nc(n1)NS(=O)(=O)c1cccc(c1)C(=O)NCC(c1ccc(C3CC3)cc1)O2 (centres unmarked) [Compound 268]	+++ (+++ is >60%)	–	–	EC50 (Table 8): < 1000 nM
COc1cccc(-c2cccc(C(=O)N3CCC4(CC3)CNC(=O)c3cccc(c3)S(=O)(=O)Nc3nc(cc(-c5c(C)cccc5C)n3)OC4)c2)c1 [Compound 459]	–	–	–	Ent. A Max Activity (Enteroid Assay A): ++ (++ is 30-60%); EC50 (Enteroid Assay A): 1000 to 3000 nM
COc1cccc(C)c1-c1cc2nc(n1)NS(=O)(=O)c1cccc(c1)C(=O)N[C@H](CC(C)(C)C)CO2 [Compound 304]	+++ (+++ is >60%)	–	–	EC50 (Table 8): 1000 to 3000 nM
Cc1cccc(C)c1-c1cc2nc(n1)NS(=O)(=O)c1cccc(c1)C(=O)NCC(Cc1ccc(C(C)(C)C)cc1)O2 (centres unmarked) [Compound 243]	+++ (+++ is >60%)	–	–	EC50 (Table 8): < 1000 nM
Cc1ccc(Cc2cccc(C)c2-c2cc3nc(n2)NS(=O)(=O)c2cccc(c2)C(=O)N[C@H](CC(C)C)CO3)cc1 [Compound 394]	–	+++ (+++ is >60%)	< 1000	–
